# According to US20250382303A1, “NOVEL COMPOUND AS NADPH OXIDASE 2 INHIBITOR AND PHARMACEUTICAL COMPOSITION CONTAINING SAME” (DONGGUK UNIVERSITY INDUSTRY-ACADEMIC COOPERATION FOUNDATION, priority 2022, published 2025):
# Target: T1, NOX2 (Homo sapiens, UniProt P04839)
# T1 construct: Used for the NOX2 activity assay was human leukemia 60 cells (HL-60), which are widely, universally used to assess NOX2 activity; endogenous in cells
# T1 sequence (P04839 2-570 limits assumed): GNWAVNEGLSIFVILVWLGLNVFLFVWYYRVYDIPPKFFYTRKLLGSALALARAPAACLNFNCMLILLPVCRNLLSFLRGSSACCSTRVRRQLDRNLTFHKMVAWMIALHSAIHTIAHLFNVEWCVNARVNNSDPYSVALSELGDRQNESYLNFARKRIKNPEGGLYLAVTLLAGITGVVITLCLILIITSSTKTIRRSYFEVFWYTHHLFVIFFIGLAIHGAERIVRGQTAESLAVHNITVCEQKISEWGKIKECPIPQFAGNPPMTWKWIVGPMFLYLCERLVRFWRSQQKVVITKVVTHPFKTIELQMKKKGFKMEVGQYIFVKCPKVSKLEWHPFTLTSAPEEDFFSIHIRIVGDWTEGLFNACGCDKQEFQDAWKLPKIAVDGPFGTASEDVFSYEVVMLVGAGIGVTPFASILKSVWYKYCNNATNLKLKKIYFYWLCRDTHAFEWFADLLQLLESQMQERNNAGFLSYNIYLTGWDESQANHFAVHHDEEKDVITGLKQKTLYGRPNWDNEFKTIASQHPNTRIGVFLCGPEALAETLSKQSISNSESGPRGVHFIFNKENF
# T1 sequence (P13498 2-195 partner limits assumed): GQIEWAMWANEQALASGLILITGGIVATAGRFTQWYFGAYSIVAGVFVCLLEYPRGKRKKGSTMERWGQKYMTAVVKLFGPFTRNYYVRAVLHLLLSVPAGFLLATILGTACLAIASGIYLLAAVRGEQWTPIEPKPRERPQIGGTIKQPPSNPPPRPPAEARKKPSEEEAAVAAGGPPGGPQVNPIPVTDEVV
# Test: NOX2 activity assay: PMA-induced ROS in ATRA-differentiated HL-60 cells (WST-1 or Amplex Red/HRP probe)
# Type: cell-based
# Conditions: for NOX2 inhibitory ability, verbal rating: WST-1, comment on Table 1; for IC50: WST-1 probe, differentiated HL-60, 200 ng/mL PMA, read-out: Inhibitory ability (NOX2)
# Protocol: NOX activity was evaluated by measuring the reactive oxygen species (ROS) produced by NOX. The probes that were used to measure ROS were water soluble tetrazolium-1 (WST-1, superoxide-specific colorimetric probe) and Amplex Red/horseradish peroxidase (AR/HRP, hydrogen peroxide-specific fluorometric probe), and the concentration of the probes used was […]. For WST-1, the change in the absorbance at 450 nm was measured, and, for AR, the change in fluorescence signals was measured at 560 nm and 585 nm, respectively for excitation wavelength (Ex) and emission wavelength (Em). The optical signal was measured using the SpectraMax M3 microplate reader from Molecular Devices at 37° C. for 60 minutes.
# Used for the NOX2 activity assay was human leukemia 60 cells (HL-60), which are widely, universally used to assess NOX2 activity. 1×10^5 cells/mL of HL-60 were treated with […] all-trans-retinoic acid (ATRA) for 4 days to induce differentiation. Differentiated HL-60 (diff. HL-60) was centrifuged at 200 g for 5 minutes and washed twice with HBSS. Differentiation was induced to reach 3×10^4 cells/well on a 96-well plate (diff). HL-60 was seeded. The test material was treated to cells and left in a 37° C. incubator for 60 minutes. As a control group, the same concentration of DMSO, which is the vehicle of the test material, was used. 200 ng/mL phorbol 12-myristate 13-acetate (PMA) was used as the NOX2 activator, and the production amount of ROS induced by PMA was measured for 60 minutes. […] diphenyleneiodonium (DPI), which is well known to inhibit NOX, was used as a positive control group to evaluate whether the NOX2 activity tester properly operates.
SMILES,"NOX2 inhibitory ability, verbal rating",IC50 [µM]
"CC12CC(NC(=O)N1c1cccc(C(=O)N3CCc4ccccc4C3(C)C)c1)c1cc(-c3ccoc3)ccc1O2 (stereo not shown) [Compound 28j, 3-(3-(1,1-Dimethyl-1,2,3,4-tetrahydroisoquinoline-2-carbonyl)phenyl)-8-(furan-3-yl)-2-methyl-5,6-dihydro-2H-2,6-methanobenzo[g][1,3,5]oxadiazocin-4(3H)-one]",excellent inhibitory ability,> 10
"CC12CC(NC(=O)N1c1cccc(C(=O)N3CCc4ccccc4C3)c1)c1c(F)cccc1O2 (stereo not shown) [Compound 25m, 7-Fluoro-2-methyl-3-(3-(1,2,3,4-tetrahydroisoquinoline-2-carbonyl)phenyl)-5,6-dihydro-2H-2,6-methanobenzo[g][1,3,5]oxadiazocin-4(3H)-one]",–,1 to 10
"CC12CC(NC(=O)N1c1cccc(C(=O)N3CCc4cc(F)ccc4C3)c1)c1cc(-c3ccoc3)ccc1O2 (stereo not shown) [Compound 28b, 3-(3-(6-Fluoro-1,2,3,4-tetrahydroisoquinoline-2-carbonyl)phenyl)-8-(furan-3-yl)-2-methyl-5,6-dihydro-2H-2,6-methanobenzo[g][1,3,5]oxadiazocin-4(3H)-one]",excellent inhibitory ability,1 to 10
"CC12CC(NC(=O)N1c1cccc(C(=O)NC3CC3)c1)c1ccccc1O2 (racemic) [Compound 8h, N-Cyclopropyl-3-(2-methyl-4-oxo-5,6-dihydro-2H-2,6-methanobenzo[g][1,3,5]oxadiazocin-3(4H)-yl)benzamide]",–,> 10
"CC12CC(NC(=O)N1c1cccc(C(=O)NCc3cccnc3)c1)c1ccccc1O2 (racemic) [Compound 8f, 3-(2-Methyl-4-oxo-5,6-dihydro-2H-2,6-methanobenzo[g][1,3,5]oxadiazocin-3(4H)-yl)-N-(pyridin-3-ylmethyl)benzamide]",–,> 10
"CC12CC(NC(=O)N1c1cccc(C(=O)N3CCc4ccc(F)cc4C3)c1)c1cc(Br)ccc1O2 (stereo not shown) [Compound 27a, 8-Bromo-3-(3-(7-fluoro-1,2,3,4-tetrahydroisoquinoline-2-carbonyl)phenyl)-2-methyl-5,6-dihydro-2H-2,6-methanobenzo[g][1,3,5]oxadiazocin-4(3H)-one]",–,1 to 10
"COc1ccc(-c2ccc3c(c2)C2CC(C)(O3)N(c3cccc(C(=O)N4CCc5ccccc5C4)c3)C(=O)N2)cc1 (stereo not shown) [Compound 26e, 8-(4-Methoxyphenyl)-2-methyl-3-(3-(1,2,3,4-tetrahydroisoquinoline-2-carbonyl)phenyl)-5,6-dihydro-2H-2,6-methanobenzo[g][1,3,5]oxadiazocin-4(3H)-one]",excellent inhibitory ability,> 10
"CC12CC(NC(=O)N1c1cccc(C(=O)O)c1)c1ccccc1O2 (stereo not shown) [Compound 7, 3-(2-Methyl-4-oxo-5,6-dihydro-2H-2,6-methanobenzo[g][1,3,5]oxadiazocin-3(4H)-yl)benzoic acid]",–,> 10
"CN1C(=O)N(c2cccc(-c3ccco3)c2)C2(C)CC1c1ccccc1O2 (stereo not shown) [Compound 16, 3-(3-(Furan-2-yl)phenyl)-2,5-dimethyl-5,6-dihydro-2H-2,6-methanobenzo[g][1,3,5]oxadiazocin-4(3H)-one]",–,> 10
"CC12CC(NC(=O)N1c1cccc(C(=O)NCCc3ccc(C(F)(F)F)cc3)c1)c1ccccc1O2 (racemic) [Compound 8d, 3-(2-Methyl-4-oxo-5,6-dihydro-2H-2,6-methanobenzo[g][1,3,5]oxadiazocin-3(4H)-yl)-N-(4-(trifluoromethyl)phenethyl)benzamide]",–,1 to 10
"C[C@@]12C[C@@H](NC(=O)N1c1cccc(C(=O)N3CCc4ccccc4C3)c1)c1ccccc1O2 [Compound 10a, (2R,6R)-2-Methyl-3-(3-(1,2,3,4-tetrahydroisoquinoline-2-carbonyl)phenyl)-5,6-dihydro-2H-2,6-methanobenzo[g][1,3,5]oxadiazocin-4(3H)-one]",–,> 10
"CC12CC(NC(=O)N1c1cccc(C(=O)NCc3ccco3)c1)c1ccccc1O2 (racemic) [Compound 8g, N-(Furan-2-ylmethyl)-3-(2-methyl-4-oxo-5,6-dihydro-2H-2,6-methanobenzo[g][1,3,5]oxadiazocin-3(4H)-yl)benzamide]",–,> 10
"COc1ccc2c(c1)C1CC(C)(O2)N(c2cccc(C(=O)N3CCc4ccccc4C3)c2)C(=O)N1 (stereo not shown) [Compound 25e, 8-Methoxy-2-methyl-3-(3-(1,2,3,4-tetrahydroisoquinoline-2-carbonyl)phenyl)-5,6-dihydro-2H-2,6-methanobenzo[g][1,3,5]oxadiazocin-4(3H)-one]",excellent inhibitory ability,–
"CC12CC(NC(=O)N1c1cccc(C(=O)N3CCc4cccc(F)c4C3)c1)c1cc(Br)ccc1O2 (stereo not shown) [Compound 27c, 8-Bromo-3-(3-(8-fluoro-1,2,3,4-tetrahydroisoquinoline-2-carbonyl)phenyl)-2-methyl-5,6-dihydro-2H-2,6-methanobenzo[g][1,3,5]oxadiazocin-4(3H)-one]",–,> 10
"CC12CC(NC(=O)N1c1cccc(C(=O)N3CCc4cc(C(F)(F)F)ccc4C3)c1)c1cc(-c3ccoc3)ccc1O2 (stereo not shown) [Compound 28h, 8-(Furan-3-yl)-2-methyl-3-(3-(6-(trifluoromethyl)-1,2,3,4-tetrahydroisoquinoline-2-carbonyl)phenyl)-5,6-dihydro-2H-2,6-methanobenzo[g][1,3,5]oxadiazocin-4(3H)-one]",–,> 10
"C[C@]12C[C@H](NC(=O)N1c1cccc(C(=O)NCc3cc(Br)cc(Br)c3)c1)c1ccccc1O2 [Compound 10d, N-(3,5-Dibromobenzyl)-3-((2S,6S)-2-methyl-4-oxo-5,6-dihydro-2H-2,6-methanobenzo[g][1,3,5]oxadiazocin-3(4H)-yl)benzamide]",–,> 10
"CC12CC(NC(=O)N1c1cccc(C(=O)N3CCc4ccccc4C3)c1)c1cccc(Br)c1O2 (stereo not shown) [Compound 25f, 10-Bromo-2-methyl-3-(3-(1,2,3,4-tetrahydroisoquinoline-2-carbonyl)phenyl)-5,6-dihydro-2H-2,6-methanobenzo[g][1,3,5]oxadiazocin-4(3H)-one]",–,> 10
"CC12CC(NC(=O)N1c1cccc(C(=O)N3CCc4ccccc4C3)c1)c1ccc(C(F)(F)F)cc1O2 (stereo not shown) [Compound 25i, 2-Methyl-3-(3-(1,2,3,4-tetrahydroisoquinoline-2-carbonyl)phenyl)-9-(trifluoromethyl)-5,6-dihydro-2H-2,6-methanobenzo[g][1,3,5]oxadiazocin-4(3H)-one]",–,1 to 10
"CC12CC(NC(=O)N1c1cccc(C(=O)N3CCc4cc(F)ccc4C3)c1)c1cc(Br)ccc1O2 (stereo not shown) [Compound 27b, 8-Bromo-3-(3-(6-fluoro-1,2,3,4-tetrahydroisoquinoline-2-carbonyl)phenyl)-2-methyl-5,6-dihydro-2H-2,6-methanobenzo[g][1,3,5]oxadiazocin-4(3H)-one]",–,1 to 10
"CC12CC(NC(=O)N1c1cccc(C(=O)N3CCc4ccccc4C3)c1)c1cc(Br)ccc1O2 (stereo not shown) [Compound 25a, 8-Bromo-2-methyl-3-(3-(1,2,3,4-tetrahydroisoquinoline-2-carbonyl)phenyl)-5,6-dihydro-2H-2,6-methanobenzo[g][1,3,5]oxadiazocin-4(3H)-one]",–,> 10
"CC12CC(NC(=O)N1c1cccc(C(=O)N3CCc4ccc(F)cc4C3)c1)c1cc(-c3ccoc3)ccc1O2 (stereo not shown) [Compound 28a, 3-(3-(7-Fluoro-1,2,3,4-tetrahydroisoquinoline-2-carbonyl)phenyl)-8-(furan-3-yl)-2-methyl-5,6-dihydro-2H-2,6-methanobenzo[g][1,3,5]oxadiazocin-4(3H)-one]",–,1 to 10
"CC1(C)CN(C(=O)c2cccc(N3C(=O)NC4CC3(C)Oc3ccc(-c5ccoc5)cc34)c2)Cc2ccccc21 (stereo not shown) [Compound 28i, 3-(3-(4,4-Dimethyl-1,2,3,4-tetrahydroisoquinoline-2-carbonyl)phenyl)-8-(furan-3-yl)-2-methyl-5,6-dihydro-2H-2,6-methanobenzo[g][1,3,5]oxadiazocin-4(3H)-one]",–,1 to 10
